Assay results as given in ChEMBL document CHEMBL1144056, “Characterization of 6-epi-3-anhydroophiobolin B from Cochliobolus heterostrophus” (J Nat Prod, 1999).
Values after ≈ are worked out from the molar mass of the structure shown.

Tests used:
[1] = tested on: P388; assay: Cytotoxicity against mouse P388 cells; assay type: functional, cell-based
[2] = tested on: Plasmodium falciparum; assay: Antimalarial activity against Plasmodium falciparum W2; assay type: functional, organism-based
[3] = tested on: Plasmodium falciparum; assay: Antimalarial activity against Plasmodium falciparum D6; assay type: functional, organism-based
[4] = tested on: A549; assay: Cytotoxicity against human A549 cells; assay type: functional, cell-based
[5] = tested on: HT-29; assay: Cytotoxicity against human HT-29 cells; assay type: functional, cell-based
[6] = Cytotoxicity against human Mel20 cells; assay type: functional, cell-based

Compound `CC(C)=C[C@H]1C[C@H](C)[C@]2(CC[C@]3(C)C[C@H]4[C@H](C(=O)C[C@@]4(C)O)/C(C=O)=C\C[C@H]32)O1` [OPHIOBOLIN A] has an IC50 [1] of 0.025 µg/mL (≈ 0.0624 µM), an IC50 [2] of 0.58 µg/mL (≈ 1.45 µM) and an IC50 [3] of under 0.529 µg/mL. For the same compound, the IC50 [4] was 0.05 µg/mL (≈ 0.125 µM), the IC50 [5] was 0.05 µg/mL (≈ 0.125 µM) and the IC50 [6] was 0.05 µg/mL (≈ 0.125 µM).
